Assay: Saturated solubility in ethanol solvent (excess loaded, stirred 24 hours, 0.45-um filtrate measured with LCMS)
Assay type: physicochemical
Details: for saturated solubility used in calculation of the degree of supersaturation: 90% by mass of EtOH, 10° C.; for saturated dissolution concentration: 90% ethanol solvent at 10° C., according to FIG. 1
Method: The saturated solubility is herein measured according to the following method. That is, 100 ml of a solvent having a predetermined ethanol concentration (w/w) is placed in a container (having a volume of 100 ml or 200 ml, suitably 200 ml), the liquid temperature is set to 10° C. by a water bath in advance, and then the solvent is stirred at 200 rpm, and a target substance is loaded in an excessive amount (amount until suspension is made). After 24 hours, a filtrate is obtained by a 0.45-um membrane filter, and the amount of the target substance (RebA or RebD) included in the filtrate is measured with LCMS. LCMS here used is suitably LCMS 8050 manufactured by Shimadzu Corporation.
Specifically, 100 ml of a solvent having a predetermined ethanol concentration (w/w) was placed in a […] glass container (separable round-bottomed flask, Tokyo Rikakikai Co., Ltd.), set to a predetermined temperature by a water bath (PCC-7000, Tokyo Rikakikai Co., Ltd.) in advance, and then stirred (SPZ-100, Tokyo Rikakikai Co., Ltd.) at 200 rpm, and RebA (J-100, Morita Kagaku Kogyo Co., Ltd.) or RebD (Jining Renewal & Joint International, China) was loaded in an excessive amount (amount until suspension was achieved). After 24 hours, a filtrate was obtained by a 0.45-um membrane filter, the amount of RebA or RebD included in the filtrate was measured with LCMS (LCMS 8050 manufactured by Shimadzu Corporation), and the solubility curve was created. The results are illustrated in FIG. 1.

saturated solubility used in calculation of the degree of supersaturation	saturated dissolution concentration	SMILES
99.33 ppm	99.3 ppm	C=C1C[C@@]23CC[C@H]4[C@@](C)(CCC[C@@]4(C)C(=O)O[C@@H]4O[C@H](CO)[C@@H](O)[C@H](O)[C@H]4O[C@@H]4O[C@H](CO)[C@@H](O)[C@H](O)[C@H]4O)[C@@H]2CC[C@]1(O[C@@H]1O[C@H](CO)[C@@H](O)[C@H](O[C@@H]2O[C@H](CO)[C@@H](O)[C@H](O)[C@H]2O)[C@H]1O[C@@H]1O[C@H](CO)[C@@H](O)[C@H](O)[C@H]1O)C3 [RebD, rebaudioside D]
8270.5 ppm	8,250 ppm	C=C1C[C@@]23CC[C@H]4[C@@](C)(CCC[C@@]4(C)C(=O)O[C@@H]4O[C@H](CO)[C@@H](O)[C@H](O)[C@H]4O)[C@@H]2CC[C@]1(O[C@@H]1O[C@H](CO)[C@@H](O)[C@H](O[C@@H]2O[C@H](CO)[C@@H](O)[C@H](O)[C@H]2O)[C@H]1O[C@@H]1O[C@H](CO)[C@@H](O)[C@H](O)[C@H]1O)C3 [RebA, rebaudioside A]
